Reference: PubChem BioAssay (NCI)
“And” between values parts separate entries of the source, which are not always exact repeats. Identical values can stand only once.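 Following 48 hours of exposure in 96-well plates, responses at five concentrations were used to interpolate endpoints linearly. GI50: concentration for 50% inhibition of growth. The concentration for full growth arrest is given as TGI.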 Where a SMILES comes first, the peptide text is derived from it. [ ]: non-standard residue; d: D form. pGlu = O=C1CC[CH](C(=O)O)N1

Columns and labels:
Assay in all cases: inhibition of tumour cell growth, NCI panel, 48 h
NCI/ADR-RES ovarian = tested on: NCI/ADR-RES ovarian
RXF 393 renal = tested on: RXF 393 renal
MOLT-4 leukemia = tested on: MOLT-4 leukemia
IGROV1 ovarian = tested on: IGROV1 ovarian
T-47D breast = tested on: T-47D breast
SK-MEL-28 melanoma = tested on: SK-MEL-28 melanoma
UO-31 renal = tested on: UO-31 renal
MCF7 breast = tested on: MCF7 breast
HOP-62 NSCLC = tested on: HOP-62 NSCLC
OVCAR-3 ovarian = tested on: OVCAR-3 ovarian

Row | Compound | GI50 (NCI/ADR-RES ovarian) | TGI (NCI/ADR-RES ovarian) | GI50 (RXF 393 renal) | TGI (RXF 393 renal) | GI50 (MOLT-4 leukemia) | TGI (MOLT-4 leukemia) | GI50 (IGROV1 ovarian) | TGI (IGROV1 ovarian) | GI50 (T-47D breast) | TGI (T-47D breast) | GI50 (SK-MEL-28 melanoma) | TGI (SK-MEL-28 melanoma) | GI50 (UO-31 renal) | TGI (UO-31 renal) | GI50 (MCF7 breast) | TGI (MCF7 breast) | GI50 (HOP-62 NSCLC) | TGI (HOP-62 NSCLC) | GI50 (OVCAR-3 ovarian) | TGI (OVCAR-3 ovarian)
1 | CCNC(=O)C1CCCN1C(=O)C(CCCN=C(N)N)NC(=O)C(CC(C)C)NC(=O)C(CC(C)C)NC(=O)C(Cc1ccc(O)cc1)NC(=O)C(CO)NC(=O)C(Cc1c[nH]c2ccccc12)NC(=O)C(Cc1cnc[nH]1)NC(=O)C1CCC(=O)N1 (stereo unspecified) ([pGlu]HWSYLLRP-NHEt; configuration not given here) | > 100 µM | > 100 µM | > 100 µM | > 100 µM | > 100 µM | > 100 µM | > 100 µM | > 100 µM | > 100 µM | > 100 µM | > 100 µM | > 100 µM | > 100 µM | > 100 µM | > 100 µM | > 100 µM | > 100 µM | > 100 µM | > 100 µM | > 100 µM
2 | C/C=C(\C)C(=O)NC1=CC[C@@]2(C)C(=CCC3C2CC[C@@]2(C)C3CC[C@@H]2C(C)N(C)C)C1=O (stereo partly specified) | 6.44 µM | 42.5 µM | 1.56 µM | 4.53 µM | 0.843 µM | 6.43 µM | 5.17 µM | 21 µM | 1.94 µM | 25.7 µM | 1.72 µM | 3.24 µM | 1.44 µM | 3.02 µM | 2.79 µM | 14.2 µM | 2.08 µM | 5.51 µM | 2.5 µM | 12.8 µM
3 | CN(Cc1ccccc1)C(=NC#N)N(Cc1ccccc1)Cc1ccccc1 |  | 56.1 µM |  | 95.9 µM |  | > 100 µM |  | > 80.6 µM |  | > 100 µM |  | 83.1 µM |  | > 84.2 µM |  | 93.2 µM |  | 84.8 µM |  | 44.7 µM
4 | Cc1c[n+](=O)c2ccccc2n1[O-] |  | > 100 µM |  | > 100 µM |  | > 100 µM |  | > 100 µM |  | > 100 µM |  | > 100 µM |  | > 100 µM |  | > 100 µM |  | > 100 µM |  | > 100 µM
5 | CN(CCO)CC[C@H](CSc1ccccc1)Nc1ccc(S(=O)(=O)NC(=O)c2ccc(N3CCC([C@@H](O)c4ccccc4-c4ccc(Cl)cc4)CC3)cc2)cc1S(=O)(=O)C(F)(F)F | > 100 µM | > 100 µM | 0.311 µM | 1.54 µM | 0.0719 µM | 1.11 µM | 2.6 µM | 6.63 µM | 4.26 µM | 59.6 µM | 2.23 µM | 5.11 µM | > 100 µM | > 100 µM | 2.97 µM | 12.2 µM | 5.9 µM | 35.5 µM | 3.71 µM | 13 µM
6 | C[C@H](NC(=O)[C@@H](C)N)[C@H](Oc1ccc2c(cnn2-c2ccc(F)cc2)c1)c1ccc2c(c1)OCCO2 | 2.69 µM | 13.5 µM | 3.58 µM | 11.2 µM | 1.44 µM | 4.25 µM | 1.84 µM | 5.07 µM | 2.19 µM | 5.41 µM | 1.75 µM | 3.4 µM | 1.39 µM | 3.27 µM | 1.43 µM | 3.71 µM | 4.34 µM | 20.1 µM | 2.37 µM | 6.98 µM
7 | N#CC1(C#N)C2(c3ccccc3)OC(c3ccccc3)(c3cc4ccccc4cc32)C1(C#N)C#N |  | 43.8 µM |  | 13.8 µM |  | 4.88 µM |  | 31.2 µM |  | 46.5 µM |  | 26.1 µM |  | 26.5 µM |  | 27.8 µM |  | 36.4 µM |  | 28.5 µM
8 | CCOC(=O)N1CCN(/[N+]([O-])=N/Oc2ccc([N+](=O)[O-])cc2[N+](=O)[O-])CC1 | 3.88 µM | 14.9 µM | 1.95 µM | 5.9 µM | 0.482 µM |  | 9.04 µM | 30.2 µM | 8 µM | > 67.1 µM | 1.82 µM | 6.69 µM | 10.6 µM | 23.3 µM | 0.365 µM | 8.16 µM | 3.14 µM | 13.6 µM | 0.542 µM | 1.82 µM
9 | Cc1cccc(/C=C/c2c(C(=O)/C=C/c3ccccc3)c(C)nc3ccccc23)c1 | 1.85 µM | 4.65 µM | 1.51 µM | 2.86 µM | 0.508 µM | 3.72 µM | 1.44 µM | 4 µM | 1.29 µM | 3.66 µM | 1.81 µM | 3.28 µM | 1.26 µM | 2.51 µM | 0.565 µM | 4.22 µM | 1.75 µM | 3.48 µM | 1.46 µM | 2.81 µM
10 | C=C(C)C(O)CCC1(C)C=Cc2c(c(C)cc3c2[nH]c2ccccc23)O1 (stereo unspecified) |  | 22.6 µM | 2.78 µM | 25 µM and 8.51 µM | 3.47 µM | 18.7 µM and 13.8 µM | 8.33 µM | 25 µM and 22 µM |  | 21.5 µM |  | 25 µM | 12 µM | 25 µM and 27.3 µM |  | 26.4 µM | 2.47 µM | 9.46 µM and 6.11 µM | 10.3 µM | 24 µM and 22 µM
11 | CCN(Cc1ccc(Cl)cc1)c1ccc(CO)c(Cl)c1 | 5.59 µM | 20.9 µM | 2.07 µM | 13.3 µM | 13.5 µM | 43.4 µM | 0.0867 µM | 0.641 µM | 0.196 µM | 1.25 µM | 11.2 µM | 24.2 µM | 2.18 µM | 13.5 µM | 0.292 µM | 6.43 µM | 1.24 µM | 13.9 µM | 1.15 µM | 5.75 µM
12 | C[C@]12CC[C@@H]3c4ccc(OC(=O)N(CCCl)CCCl)cc4CC[C@H]3[C@@H]1CC[C@@H]2O | 1.92 µM | 8.81 µM | 2.23 µM | 6.42 µM | 1.78 µM | 8.15 µM | 4.7 µM | 33.4 µM and 3.65 µM | 4.83 µM | 40.7 µM | 3.75 µM |  | 3.12 µM | 14 µM | 1.08 µM |  | 2.44 µM |  | 0.691 µM | 4.56 µM
13 | O=C1C(Cl)=C(Nc2cccc(Cl)c2)C(=O)N1Cc1ccc(Cl)cc1 | 0.298 µM | 3.28 µM | 0.778 µM | 22.6 µM | 0.513 µM | > 100 µM | 1.19 µM | > 39.3 µM | 3.38 µM | 34 µM | 3.12 µM | 23.5 µM | 1.74 µM | 24.5 µM | 0.499 µM | 13.6 µM | 1.53 µM | 13.9 µM | 0.784 µM | 6.24 µM
14 | N#Cc1ccc(OCc2nc(N)nc(N)c2-c2ccc(Cl)c(Cl)c2)cc1 | 1.55 µM | > 100 µM | 0.597 µM | 30 µM | 3.7 µM | 40.8 µM | 1.73 µM | > 100 µM | 9.64 µM | > 100 µM | 4.39 µM | 40.2 µM | 3.79 µM | > 100 µM | 2.51 µM | 34.5 µM | 5.21 µM | > 100 µM | 5.24 µM | 38.2 µM
15 | CC(C)Cn1cnc2c(SCc3ccc(Cl)cc3Cl)nc(N)nc21 |  | > 100 µM |  | > 100 µM |  | 26.9 µM |  | > 100 µM |  | > 100 µM |  | > 100 µM |  | > 100 µM |  | 47.8 µM |  | > 100 µM |  | > 100 µM
16 | C[C@@]1(C(=O)O)CCC[C@]2(C)C1CC[C@@]13CC(=O)[C@@](CO)(CC[C@]12O)C3 (stereo partly specified) | > 100 µM | > 100 µM | > 100 µM | > 100 µM | > 100 µM | > 100 µM | > 100 µM | > 100 µM | 22.2 µM | > 100 µM | > 100 µM | > 100 µM | > 100 µM | > 100 µM | > 100 µM | > 100 µM | > 100 µM | > 100 µM | > 100 µM | > 100 µM
17 | Clc1nc(Cl)c2ncn(CC3(Cn4cnc5c(Cl)nc(Cl)nc54)COC3)c2n1 | 0.257 µM | 0.573 µM | 0.196 µM | 0.405 µM | 0.462 µM |  | 0.209 µM | 0.405 µM | 0.179 µM | 0.391 µM | 0.212 µM | 0.396 µM | 0.623 µM | 1.35 µM | 0.188 µM | 0.428 µM | 0.221 µM | 0.426 µM | 0.202 µM | 0.36 µM
18 | COc1ncnc2c(-c3ccccc3)cn(COCc3ccccc3)c12 | 3.17 µM | 19.1 µM | 2.5 µM | 7.71 µM | 2.7 µM | 7.12 µM | 7.16 µM | > 100 µM | 3.04 µM | 9.84 µM | 3.33 µM | 48.9 µM | 2.58 µM | 12 µM | 2.53 µM | 9.32 µM | 5.78 µM | 87.6 µM | 5.09 µM | 20.1 µM
19 | Oc1c(-c2nnc(-c3ccccc3Cl)o2)sc2nnc(-c3ccccc3)c(-c3ccccc3)c12 | 1.09 µM | > 100 µM | 24.6 µM | > 100 µM | 3.88 µM | > 100 µM | 2.47 µM | 8.78 µM | 4.78 µM | > 100 µM | 16.4 µM | > 100 µM | 2.38 µM | 8.4 µM | 3.84 µM | > 100 µM | 4.99 µM | > 100 µM | 2.64 µM | 8 µM
